Values quoted from earlier work in patent US20210353570A1, “Flutamide Microsphere-Based Arterial Embolization for Treating Prostate Disorders” (Biovena Science, LLC, priority 2018, published 2021).

Experiments:
[1] = not given; remark: listed apart in the source

For `CC(C)C(=O)Nc1ccc([N+](=O)[O-])c(C(F)(F)F)c1` [Flutamide, 4′-nitro-3′-trifluoromethyl-isobutyranilide], the bioavailability (after oral administration) is given as 49%, the half-life (in vivo) is given as 5 to 6 h and the solubility [1] is given as “low solubility”.
